According to patent publication US20230072683A1, “PYRIDO-PYRIMIDIN DERIVATIVES AND PHARMACEUTICAL COMPOSITION, FOR USE IN PREVENTING OR TREATING PI3 KINASE RELATED DISEASES, COMPRISING SAME AS ACTIVE INGREDIENT” (BORYUNG PHARMACEUTICAL CO., LTD, priority 2019, published 2023):

Experiments:
DNA-PK(h) = DNA-PK(h) (Homo sapiens, UniProt P78527); assay: Evaluation of inhibitory activity against DNA-PK (HTRF kinase assay, GST-cMyc-p53 substrate); format: biochemical; conditions: for inhibition at 0.01 µM: compound concentration 0.01 μM, read-out: EXP_VALUE(% Inhibition) DNA-PK(h) 0.01 μM; for inhibition at 0.1 µM: compound concentration 0.1 μM, read-out: EXP_VALUE(% Inhibition) DNA-PK(h) 0.1 μM
Method in brief: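 p53 Ser15 phosphorylation by human DNA-PK was measured by time-resolved FRET ratio (665/620 nm ×10000) using Eu-labelled anti-phospho-Ser15 and d2 anti-GST antibodies. Substrate GST-cMyc-p53 at 50 μM; Mg/ATP-initiated, 30 min at room temperature, EDTA stop.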

[1] = target: PI3K-δ (PI3K(p1108/p857) (h)) (Homo sapiens, UniProt O00329); assay: Evaluation of inhibitory activity against PI3K-δ (HTRF kinase assay); format: biochemical; conditions: for inhibition at 0.01 µM: compound concentration 0.01 μM, read-out: EXP_VALUE(% Inhibition) PI3K-δ 0.01 μM; for inhibition at 0.1 µM: compound concentration 0.1 μM, read-out: EXP_VALUE(% Inhibition) PI3K-δ 0.1 μM
Method in brief: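 HTRF read-out (665/620 nm ratio ×10000) used Eu-labelled anti-GST, GST-tagged GRP1 PH domain and streptavidin-allophycocyanin after EDTA/PIP3 stop.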

PI3K-δ (PI3K(p1108/p857) (h)), sequence (O00329 whole entry, the tested form may be a part): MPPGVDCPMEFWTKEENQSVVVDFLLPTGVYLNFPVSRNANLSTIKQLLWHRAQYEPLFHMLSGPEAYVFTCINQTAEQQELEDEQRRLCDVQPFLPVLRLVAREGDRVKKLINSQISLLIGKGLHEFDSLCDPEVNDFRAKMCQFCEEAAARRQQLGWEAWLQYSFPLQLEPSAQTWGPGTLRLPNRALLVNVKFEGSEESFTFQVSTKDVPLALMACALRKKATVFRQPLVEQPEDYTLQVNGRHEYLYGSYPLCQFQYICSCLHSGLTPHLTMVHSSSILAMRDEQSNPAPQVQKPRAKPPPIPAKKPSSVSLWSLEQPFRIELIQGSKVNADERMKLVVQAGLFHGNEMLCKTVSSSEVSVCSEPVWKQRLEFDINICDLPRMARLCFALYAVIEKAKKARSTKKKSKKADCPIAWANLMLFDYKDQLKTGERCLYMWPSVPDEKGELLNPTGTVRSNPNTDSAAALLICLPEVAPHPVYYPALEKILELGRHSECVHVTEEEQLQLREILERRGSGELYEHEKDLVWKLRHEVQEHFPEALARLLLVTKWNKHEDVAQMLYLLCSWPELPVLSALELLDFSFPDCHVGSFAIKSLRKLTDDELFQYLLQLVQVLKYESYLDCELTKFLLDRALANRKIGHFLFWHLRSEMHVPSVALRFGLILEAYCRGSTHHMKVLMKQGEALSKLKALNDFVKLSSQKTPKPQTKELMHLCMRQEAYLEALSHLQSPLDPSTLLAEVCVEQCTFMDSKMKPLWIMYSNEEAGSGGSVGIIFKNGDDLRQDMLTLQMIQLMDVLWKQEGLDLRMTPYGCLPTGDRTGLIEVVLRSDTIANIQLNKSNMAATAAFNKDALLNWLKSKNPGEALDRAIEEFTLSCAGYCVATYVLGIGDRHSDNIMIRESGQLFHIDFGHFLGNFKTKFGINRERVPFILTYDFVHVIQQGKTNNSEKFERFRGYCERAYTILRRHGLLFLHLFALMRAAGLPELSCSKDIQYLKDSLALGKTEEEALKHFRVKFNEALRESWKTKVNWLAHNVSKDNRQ
PI3K-δ (PI3K(p1108/p857) (h)), sequence (P27986 whole entry partner, the tested form may be a part): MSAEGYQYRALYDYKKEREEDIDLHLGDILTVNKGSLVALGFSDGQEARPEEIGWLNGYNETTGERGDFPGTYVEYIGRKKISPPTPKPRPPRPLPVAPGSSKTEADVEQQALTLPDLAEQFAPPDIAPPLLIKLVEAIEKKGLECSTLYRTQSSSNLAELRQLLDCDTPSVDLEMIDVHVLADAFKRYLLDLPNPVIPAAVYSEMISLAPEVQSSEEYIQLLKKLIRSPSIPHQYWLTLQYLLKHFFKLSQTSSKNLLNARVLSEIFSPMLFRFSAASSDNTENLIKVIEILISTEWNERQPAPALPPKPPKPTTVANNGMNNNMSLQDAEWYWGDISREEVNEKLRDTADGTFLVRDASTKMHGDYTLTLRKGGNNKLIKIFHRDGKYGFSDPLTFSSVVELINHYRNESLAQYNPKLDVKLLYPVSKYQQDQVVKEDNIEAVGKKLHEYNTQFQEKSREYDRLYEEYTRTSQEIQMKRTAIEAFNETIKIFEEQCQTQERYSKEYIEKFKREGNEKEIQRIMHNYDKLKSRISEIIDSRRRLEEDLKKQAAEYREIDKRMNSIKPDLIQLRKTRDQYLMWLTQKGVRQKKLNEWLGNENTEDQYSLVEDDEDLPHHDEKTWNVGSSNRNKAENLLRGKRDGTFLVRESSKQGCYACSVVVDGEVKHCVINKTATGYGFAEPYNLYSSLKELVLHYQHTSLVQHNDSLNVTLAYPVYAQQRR

Row | SMILES | inhibition at 0.01 µM (DNA-PK(h)) [%] | inhibition at 0.01 µM [1] [%] | inhibition at 0.1 µM (DNA-PK(h)) [%] | inhibition at 0.1 µM [1] [%]
1 | C[C@H](Nc1ncnc2[nH]ccc(=O)c12)c1c(Cl)c2cccc(N3CCN(C)CC3)c2c(=O)n1-c1ccccc1 [Example 250, (S)-4-((1-(4-chloro-8-(4-methylpiperazin-1-yl)-1-oxo-2-phenyl-1,2-dihydroisoquinolin-3-yl)ethyl)amino)pyrido[2,3-d]pyrimidin-5(8H)-one] | 0 | 32 | 57 | 82
2 | C[C@H](Nc1ncnc2[nH]ccc(=O)c12)c1c(Cl)c2cccc(N3CCOCC3)c2c(=O)n1-c1ccccc1 [Example 251, (S)-4-((1-(4-chloro-8-morpholino-1-oxo-2-phenyl-1,2-dihydroisoquinolin-3-yl)ethyl)amino)pyrido[2,3-d]pyrimidin-5(8H)-one] | 6 | 65 | 60 | 109
3 | C[C@H](Nc1ncnc2[nH]ccc(=O)c12)c1c(Cl)c2cccc(N3CCCC3)c2c(=O)n1-c1ccccc1 [Example 252, (S)-4-((1-(4-chloro-1-oxo-2-phenyl-8-(pyrrolidin-1-yl)-1,2-dihydroisoquinolin-3-yl)ethyl)amino)pyrido[2,3-d]pyrimidin-5(8H)-one] | 4 | 53 | 42 | 97
4 | C[C@H](Nc1ncnc2[nH]ccc(=O)c12)c1c(Cl)c2cccc(-c3ccc4c(c3)OCCO4)c2c(=O)n1-c1ccccc1 [Example 253, (S)-4-((1-(4-chloro-8-(2,3-dihydrobenzo[b][1,4]dioxin-6-yl)-1-oxo-2-phenyl-1,2-dihydroisoquinolin-3-yl)ethyl)amino)pyrido[2,3-d]pyrimidin-5(8H)-one] | 78 | 105 | 97 | 102
5 | C[C@H](Nc1ncnc2[nH]ccc(=O)c12)c1c(Cl)c2cccc(-c3ccc(-c4ccccc4)cc3)c2c(=O)n1-c1ccccc1 [Example 254, (S)-4-((1-(8-([1,1′-biphenyl]-4-yl)-4-chloro-1-oxo-2-phenyl-1,2-dihydroisoquinolin-3-yl)ethyl)amino)pyrido[2,3-d]pyrimidin-5(8H)-one] | 40 | 96 | 82 | 110
6 | C[C@H](Nc1ncnc2[nH]ccc(=O)c12)c1c(Cl)c2cccc(-c3ccc(C(F)(F)F)cc3Cl)c2c(=O)n1-c1ccccc1 [Example 256, (S)-4-((1-(4-chloro-8-(2-chloro-4-(trifluoromethyl)phenyl)-1-oxo-2-phenyl-1,2-dihydroisoquinolin-3-yl)ethyl)amino)pyrido[2,3-d]pyrimidin-5(8H)-one] | 44 | 75 | 77 | 100
7 | Cc1c[nH]c2ccc(-c3cccc4cc([C@H](C)Nc5ncnc6[nH]ccc(=O)c56)n(-c5ccccc5)c(=O)c34)cc12 [Example 263, (S)-4-((1-(8-(3-methyl-1H-indol-5-yl)-1-oxo-2-phenyl-1,2-dihydroisoquinolin-3-yl)ethyl)amino)pyrido[2,3-d]pyrimidin-5(8H)-one] | 6 | 77 | 52 | 89
8 | C[C@H](Nc1ncnc2[nH]ccc(=O)c12)c1cc2cccc(-c3ccc(N(C)C)nc3)c2c(=O)n1-c1ccccc1 [Example 264, (S)-4-((1-(8-(6-(dimethylamino)pyridin-3-yl)-1-oxo-2-phenyl-1,2-dihydroisoquinolin-3-yl)ethyl)amino)pyrido[2,3-d]pyrimidin-5(8H)-one] | 7 | 73 | 41 | 82
9 | C[C@H](Nc1ncnc2[nH]ccc(=O)c12)c1cc2cccc(C#N)c2c(=O)n1-c1ccccc1 [Example 266, (S)-1-oxo-3-(1-((5-oxo-5,8-dihydropyrido[2,3-d]pyrimidin-4-yl)amino)ethyl)-2-phenyl-1,2-dihydroisoquinoline-8-carbonitrile] | -10 | 69 | 3 | 88

Other lines, results leading:

Row | inhibition at 0.01 µM (DNA-PK(h)) [%] | inhibition at 0.01 µM [1] [%] | inhibition at 0.1 µM (DNA-PK(h)) [%] | inhibition at 0.1 µM [1] [%] | SMILES
10 | 66 | 99 | – | – | Cc1ccc(-c2cccc3c(Cl)c([C@H](C)Nc4ncnc5[nH]ccc(=O)c45)n(-c4ccccc4)c(=O)c23)c(C)n1 [Example 248, (S)-4-((1-(4-chloro-8-(2,6-dimethylpyridin-3-yl)-1-oxo-2-phenyl-1,2-dihydroisoquinolin-3-yl)ethyl)amino)pyrido[2,3-d]pyrimidin-5(8H)-one]
11 | 11 | 69 | 69 | 98 | C[C@H](Nc1ncnc2[nH]ccc(=O)c12)c1c(Cl)c2cccc(N(C)C)c2c(=O)n1-c1ccccc1 [Example 249, (S)-4-((1-(4-chloro-8-(dimethylamino)-1-oxo-2-phenyl-1,2-dihydroisoquinolin-3-yl)ethyl)amino)pyrido[2,3-d]pyrimidin-5(8H)-one]
12 | 15.6 | 25.1 | 73.6 | 50.9 | Cc1ccc(-c2cccc3c(Cl)c([C@H](C)Nc4ncnc5[nH]ccc(=O)c45)n(-c4ccccc4)c(=O)c23)cc1 [Example 255, (S)-4-((1-(4-chloro-1-oxo-2-phenyl-8-(p-tolyl)-1,2-dihydroisoquinolin-3-yl)ethyl)amino)pyrido[2,3-d]pyrimidin-5(8H)-one]
13 | 75 | 68 | 98 | 98 | Cc1ccc(-c2cccc3c(Cl)c([C@H](C)Nc4ncnc5[nH]ccc(=O)c45)n(-c4ccccc4)c(=O)c23)cn1 [Example 257, (S)-4-((1-(4-chloro-8-(6-methylpyridin-3-yl)-1-oxo-2-phenyl-1,2-dihydroisoquinolin-3-yl)ethyl)amino)pyrido[2,3-d]pyrimidin-5(8H)-one]
14 | 13 | 86 | 12 | 101 | C[C@H](Nc1ncnc2[nH]ccc(=O)c12)c1c(Cl)c2cccc(-c3ccc[nH]3)c2c(=O)n1-c1ccccc1 [Example 258, (S)-4-((1-(4-chloro-1-oxo-2-phenyl-8-(1H-pyrrol-2-yl)-1,2-dihydroisoquinolin-3-yl)ethyl)amino)pyrido[2,3-d]pyrimidin-5(8H)-one]
15 | 50 | 108 | 86 | 116 | C[C@H](Nc1ncnc2[nH]ccc(=O)c12)c1c(Cl)c2cccc(-c3ccc(C#N)cc3)c2c(=O)n1-c1ccccc1 [Example 259, (S)-4-(4-chloro-1-oxo-3-(1-((5-oxo-5,8-dihydropyrido[2,3-d]pyrimidin-4-yl)amino)ethyl)-2-phenyl-1,2-dihydroisoquinolin-8-yl)benzonitrile]
16 | 40 | 71 | 77 | 87 | C[C@H](Nc1ncnc2[nH]ccc(=O)c12)c1c(Cl)c2cccc(C#N)c2c(=O)n1-c1ccccc1 [Example 265, (S)-4-chloro-1-oxo-3-(1-((5-oxo-5,8-dihydropyrido[2,3-d]pyrimidin-4-yl)amino)ethyl)-2-phenyl-1,2-dihydroisoquinoline-8-carbonitrile]
